Source: patent US12498382B2, “Biomarkers for vitiligo” (INCYTE CORPORATION, priority 2019, dated 2025)

Test system: HaCaT cells
Assay: Concentrations of inflammatory mediators produced by HaCaT cells stimulated with TNFα and IFNγ in presence/absence of JAK inhibitors (ProCarta)
Assay type: cell-based, human
Procedure: After 48 hours, cell culture media was removed from 24 well plates and replaced with 250 uL of media containing serial diluted drug, then incubated for 15 minutes at 37° C./5% CO2. […] The final concentration of Recombinant Human Interferon gamma and Recombinant Human Tumor Necrosis Factor alpha was 25 ng/mL of each cytokine. Cytokine stimulation added to wells containing drug brought the final concentrations for each drug treatment to 25 nM, 50 nM, 100 nM, and 200 nM. Treated plates were mixed by gentle agitation for 30 seconds then incubated for 24 hours at 37° C./5% CO2. At the end of the 24 hour incubation media was immediately removed from each plate.
Media was incubated with antibody conjugated beads designed to bind to the epitopes of specific target proteins and identify the bound protein through the bead's distinctive spectral pattern. Biotinylated detection antibodies, designed to bind to different epitopes of the same target proteins, and Streptavidin-PE are added to assay plates to quantify the amount of the target proteins. Assay plates were read on the Luminex 200 and data were expressed as Net Median Fluorescence Intensity. […] The concentration of each protein was extrapolated from the antigen standard curve and concentrations were expressed as pg/mL (Table 15).

[1] = TNFα 25 ng/mL + IFNγ 25 ng/mL, drug 100 nM
[2] = TNFα 25 ng/mL + IFNγ 25 ng/mL, drug 200 nM

Compound: N#CCC1(n2cc(-c3ncnc4[nH]ccc34)cn2)CN(C2CCN(C(=O)c3ccnc(C(F)(F)F)c3F)CC2)C1 [Cpc B]
- IL15 concentration [1]: 2.58 ± 0.68 pg/mL
- IL17A concentration [1]: 4.84 ± 0.34 pg/mL
- IL18 concentration [1]: 156.06 ± 3.24 pg/mL
- IL21 concentration [1]: 2.36 ± 0.35 pg/mL
- IL22 concentration [1]: 8.03 ± 0.87 pg/mL
- IL23 concentration [1]: 6.44 ± 0.69 pg/mL
- IL27 concentration [1]: 5.36 ± 0.73 pg/mL
- IL31 concentration [1]: 3.35 ± 0.44 pg/mL
- IP-10/CXCL10 concentration [1]: 4050.7 ± 471.31 pg/mL
- LIF concentration [1]: 70.3 ± 3.65 pg/mL
- MCP1 concentration [1]: 15200 ± 0 pg/mL
- MIP1 alpha concentration [1]: 91.52 ± 5.05 pg/mL
- MIP1 beta concentration [1]: 323.13 ± 6.82 pg/mL
- PDGF-BB concentration [1]: 5.4 ± 0.16 pg/mL
- PIGF-1 concentration [1]: 54.67 ± 3.27 pg/mL
- RANTES concentration [1]: 194.21 ± 12.67 pg/mL
- SCF concentration [1]: 4.26 ± 0.17 pg/mL
- SDF-1 alpha concentration [1]: 3471.01 ± 111.77 pg/mL
- TNF alpha concentration [1]: 11722.68 ± 1259.67 pg/mL
- TNF beta concentration [1]: 4 ± 0.51 pg/mL
- VEGF-A concentration [1]: 1262.01 ± 46.28 pg/mL
- VEGF-D concentration [1]: 8.71 ± 0.65 pg/mL
- bNGF concentration [1]: 7.04 ± 0.59 pg/mL
- BDNF concentration [2]: 4.1 ± 0.24 pg/mL
- EGF concentration [2]: 1.52 ± 0.1 pg/mL
- Eotaxin concentration [2]: 10.05 ± 0.19 pg/mL
- FGF-2 concentration [2]: 21.39 ± 1.61 pg/mL
- GM-CSF concentration [2]: 134.13 ± 3.74 pg/mL
- GRO alpha concentration [2]: 563.61 ± 42.17 pg/mL
- HGF concentration [2]: 13.5 ± 0.57 pg/mL
- IFN alpha concentration [2]: 0.26 ± 0 pg/mL
- IFN gamma concentration [2]: 25272.53 ± 3796.83 pg/mL
- IL1RA concentration [2]: 5710.44 ± 269.38 pg/mL
- IL1 alpha concentration [2]: 6.16 ± 0.35 pg/mL
- IL1 beta concentration [2]: 8.43 ± 0.29 pg/mL
- IL2 concentration [2]: 31.86 ± 1.25 pg/mL
- IL4 concentration [2]: 6.42 ± 1.24 pg/mL
- IL5 concentration [2]: 25.88 ± 1.37 pg/mL
- IL6 concentration [2]: 568.73 ± 24.74 pg/mL
- IL7 concentration [2]: 2.09 ± 0.14 pg/mL
- IL8 concentration [2]: 3023.88 ± 193.36 pg/mL
- IL9 concentration [2]: 3.28 ± 0.35 pg/mL
- IL10 concentration [2]: 0.84 ± 0.06 pg/mL
- IL12p70 concentration [2]: 1.87 ± 0.16 pg/mL
- IL13 concentration [2]: 2.52 ± 0.3 pg/mL
- IL15 concentration [2]: 2.57 ± 0.54 pg/mL
- IL17A concentration [2]: 4.43 ± 0.26 pg/mL
- IL18 concentration [2]: 159.36 ± 4.73 pg/mL
- IL21 concentration [2]: 2.47 ± 0.28 pg/mL
- IL22 concentration [2]: 7.74 ± 0.78 pg/mL
- IL23 concentration [2]: 7.41 ± 0.5 pg/mL
- IL27 concentration [2]: 8.04 ± 1.65 pg/mL
- IL31 concentration [2]: 3.93 ± 0.4 pg/mL
- IP-10/CXCL10 concentration [2]: 4071.78 ± 411.22 pg/mL
- LIF concentration [2]: 71.92 ± 2.82 pg/mL
- MCP1 concentration [2]: 17302.89 ± 2102.89 pg/mL
- MIP1 alpha concentration [2]: 83.1 ± 2.77 pg/mL
- MIP1 beta concentration [2]: 318.83 ± 8.71 pg/mL
- PDGF-BB concentration [2]: 5.28 ± 0.15 pg/mL
- PIGF-1 concentration [2]: 54.61 ± 2.69 pg/mL
- RANTES concentration [2]: 183.18 ± 13.92 pg/mL
- SCF concentration [2]: 4.2 ± 0.17 pg/mL
- SDF-1 alpha concentration [2]: 3481.04 ± 134.24 pg/mL
- TNF alpha concentration [2]: 11233.91 ± 945.2 pg/mL
- TNF beta concentration [2]: 4.42 ± 0.45 pg/mL
- VEGF-A concentration [2]: 1232.36 ± 49.33 pg/mL
- VEGF-D concentration [2]: 9.12 ± 0.78 pg/mL
- bNGF concentration [2]: 6.52 ± 0.69 pg/mL
- BDNF concentration (no stimulation, drug 200 nM): 5.35 ± 0.34 pg/mL
- EGF concentration (no stimulation, drug 200 nM): 1.06 ± 0.14 pg/mL
- Eotaxin concentration (no stimulation, drug 200 nM): 2.22 ± 0.09 pg/mL
- FGF-2 concentration (no stimulation, drug 200 nM): 8.5 ± 0.95 pg/mL
- GM-CSF concentration (no stimulation, drug 200 nM): 8.69 ± 1.22 pg/mL
- GRO alpha concentration (no stimulation, drug 200 nM): 228.97 ± 14.45 pg/mL
- HGF concentration (no stimulation, drug 200 nM): 4.44 ± 0.32 pg/mL
- IFN alpha concentration (no stimulation, drug 200 nM): 0.23 ± 0.02 pg/mL
- IFN gamma concentration (no stimulation, drug 200 nM): 3.39 ± 0.69 pg/mL
- IL1RA concentration (no stimulation, drug 200 nM): 502.58 ± 57.22 pg/mL
- IL1 alpha concentration (no stimulation, drug 200 nM): 0.29 ± 0.03 pg/mL
- IL1 beta concentration (no stimulation, drug 200 nM): 0.98 ± 0.14 pg/mL
- IL2 concentration (no stimulation, drug 200 nM): 3.32 ± 0.6 pg/mL
- IL4 concentration (no stimulation, drug 200 nM): 4.61 ± 0.7 pg/mL
- IL5 concentration (no stimulation, drug 200 nM): 2.84 ± 0.38 pg/mL
- IL6 concentration (no stimulation, drug 200 nM): 26.86 ± 2.62 pg/mL
- IL7 concentration (no stimulation, drug 200 nM): 3.03 ± 0.2 pg/mL
- IL8 concentration (no stimulation, drug 200 nM): 261.92 ± 12.12 pg/mL
- IL9 concentration (no stimulation, drug 200 nM): 3.91 ± 0.48 pg/mL
- IL10 concentration (no stimulation, drug 200 nM): 0.32 ± 0.07 pg/mL
- IL12p70 concentration (no stimulation, drug 200 nM): 1.55 ± 0.29 pg/mL
- IL13 concentration (no stimulation, drug 200 nM): 1.14 ± 0.13 pg/mL
- IL15 concentration (no stimulation, drug 200 nM): 2.22 ± 0.42 pg/mL
- IL17A concentration (no stimulation, drug 200 nM): 1.2 ± 0.29 pg/mL
- IL18 concentration (no stimulation, drug 200 nM): 6.04 ± 0.5 pg/mL
- IL21 concentration (no stimulation, drug 200 nM): 2.43 ± 0.31 pg/mL
- IL22 concentration (no stimulation, drug 200 nM): 8.13 ± 0.77 pg/mL
- IL23 concentration (no stimulation, drug 200 nM): 5.8 ± 1.11 pg/mL
- IL27 concentration (no stimulation, drug 200 nM): 7.57 ± 2.22 pg/mL
- IL31 concentration (no stimulation, drug 200 nM): 3.01 ± 0.44 pg/mL
- IP-10/CXCL10 concentration (no stimulation, drug 200 nM): 19.75 ± 0.42 pg/mL
- LIF concentration (no stimulation, drug 200 nM): 23.25 ± 0.99 pg/mL
- MCP1 concentration (no stimulation, drug 200 nM): 1125.31 ± 55.12 pg/mL
- MIP1 alpha concentration (no stimulation, drug 200 nM): 2.63 ± 0.35 pg/mL
- MIP1 beta concentration (no stimulation, drug 200 nM): 113.94 ± 3.76 pg/mL
- PDGF-BB concentration (no stimulation, drug 200 nM): 2.15 ± 0.13 pg/mL
- PIGF-1 concentration (no stimulation, drug 200 nM): 20.17 ± 1.26 pg/mL
- RANTES concentration (no stimulation, drug 200 nM): 8.42 ± 0.51 pg/mL
- SCF concentration (no stimulation, drug 200 nM): 1.93 ± 0.13 pg/mL
- SDF-1 alpha concentration (no stimulation, drug 200 nM): 1003.25 ± 40.97 pg/mL
- TNF alpha concentration (no stimulation, drug 200 nM): 2.4 ± 0.71 pg/mL
- TNF beta concentration (no stimulation, drug 200 nM): 4.7 ± 0.28 pg/mL
- VEGF-A concentration (no stimulation, drug 200 nM): 554.18 ± 29.76 pg/mL
- VEGF-D concentration (no stimulation, drug 200 nM): 3.19 ± 0.57 pg/mL
- bNGF concentration (no stimulation, drug 200 nM): 3.84 ± 0.71 pg/mL
